This note sets out measurements from patent US20240116994A1, “Peptides And Use Thereof For Diagnosing And Treating Antiphospholipid Syndrome” (UNIVERSITE DE GENEVE, priority 2021, published 2024).

This assay has as its system aPL produced by mice. Kind of assay: ELISA of IgG anti-IIa-8.0-biot-2x in serum of lupus-prone mice. The settings on record: serum of apoe−/−.Nba2.Yaa mice on HCD (FIG. 3A). In kind it is binding. The text has this:
B6.Nba2. Yaa mice were generated as described.^8 The Apoe^−/− null mutation was introduced in B6.Nba2.Yaa mice by breeding. Eleven-week old Apoe^−/− C57B1/6 and Apoe^−/−Nba2.Yaa mice were subjected to 11 weeks of high cholesterol diet (HCD) (20.1% fat, 1.25% cholesterol, Research Diets, Inc., New Brunswick, NJ), as a model of advanced atherosclerosis. The treatments and atherosclerosis protocols were well-tolerated by the mice, and no adverse events (such as weight loss and signs of systemic toxicity) were reported. At sacrifice, haematological parameters were routinely measured. Animals were euthanized by exsanguination after anesthesia with 4% isoflurane. All breeding and experimental protocols and procedures were reviewed and approved by the Institutional Animal Care and Use Committee of the Geneva University School of Medicine.
Determination of aPL by ELISA—MaxiSorp™ 96 well plates (Nunc) or Streptavidin plate (Thermofisher) were coated with 10 μg/ml recombinant domains of β2GP1, peptides or biotinylated-peptide prior to incubation with aPLA. Secondary anti-human antibodies conjugated to IR800CW (Rockland) or HRP were used. Protein- or peptide-bound antibodies were detected and quantified by the Odyssey system (Li-Cor Biosciences) or absorbance in optical densities (OD) was determined at 405 nm (molecular Devices™ Filtermax). […]

Where no end group is shown, it is not given here.

As for “IIa-8.0-biot-2x: dimeric biotinylated IIa-8.0 peptide; also used associated with streptavidin magnetic beads (RSRGGMRKRKKPLTGRSRGGMRKRKKPLTG; also: dimeric peptide (two IIa-8.0 copies), biotinylated, site not given here)”, the “interaction with aPL produced by mice” value is listed as “able to interact also with aPL produced by mice”.
